{"source": "paper PMC9788223", "about": "“Biodegradation of Free Gossypol by Helicoverpa armigera Carboxylesterase Expressed in Pichia pastoris” (Toxins, 2022)", "key": {"[1]": {"target": "T1, CarE CCE001a (Helicoverpa armigera, UniProt D9IV61)", "T1 construct": "no purification described", "T1 sequence (D9IV61 17-555)": "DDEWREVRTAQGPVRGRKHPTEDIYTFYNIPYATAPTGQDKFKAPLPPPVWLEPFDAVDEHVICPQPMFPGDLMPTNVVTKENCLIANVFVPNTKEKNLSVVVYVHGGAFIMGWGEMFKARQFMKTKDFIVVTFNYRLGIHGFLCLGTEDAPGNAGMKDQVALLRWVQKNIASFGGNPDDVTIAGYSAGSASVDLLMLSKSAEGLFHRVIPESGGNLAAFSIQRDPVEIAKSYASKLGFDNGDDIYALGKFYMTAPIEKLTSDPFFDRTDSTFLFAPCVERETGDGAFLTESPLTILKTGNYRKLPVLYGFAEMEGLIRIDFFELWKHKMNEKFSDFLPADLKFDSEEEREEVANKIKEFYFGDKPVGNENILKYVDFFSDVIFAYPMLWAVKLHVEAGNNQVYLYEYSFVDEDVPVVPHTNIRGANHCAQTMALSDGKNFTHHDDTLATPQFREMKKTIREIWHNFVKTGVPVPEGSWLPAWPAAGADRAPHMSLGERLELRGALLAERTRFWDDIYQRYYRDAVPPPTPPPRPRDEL", "experiment": "free gossypol depletion by HPLC; products by UPLC-QTOF/MS", "assay_type": "cell-based", "conditions": "PBS, NADPH-Na4 added, 37 °C, 1.5 h, dark; recombinant protein from P. pastoris expression, purification not described"}, "[2]": {"target": "T1, CarE CCE001a", "experiment": "esterase activity, absorbance at […] nm", "assay_type": "cell-based", "conditions": "37 °C; recombinant protein from P. pastoris expression, purification not described"}}, "data": [{"smiles": "Cc1cc2c(C(C)C)c(O)c(O)c(C=O)c2c(O)c1-c1c(C)cc2c(C(C)C)c(O)c(O)c(C=O)c2c1O", "note": "[Gossypol]", "values": [{"measurement": "free gossypol depletion by HPLC; products by UPLC-QTOF/MS", "setting": "[1]", "result": "Under the influence of recombinant CarE, TG and FG levels decreased rapidly in the experimental group"}]}, {"smiles": "CC(=O)Oc1cccc2ccccc12", "note": "[alpha-naphthyl acetate]", "values": [{"measurement": "esterase activity, absorbance at 450 nm", "setting": "[2]", "result": "We also evaluated the enzyme activity of the recombinant CCE001a protein with the model substrate"}]}]}
